Here are results for 16 compounds from ChEMBL document CHEMBL1127822, “6-Alkyl- and 6-arylandrost-4-ene-3,17-diones as aromatase inhibitors. Synthesis and structure-activity relationships” (J Med Chem, 1994).

For assay [1], the target named is T1, Aromatase (Homo sapiens, UniProt P11511).
T1 sequence (P11511 whole entry): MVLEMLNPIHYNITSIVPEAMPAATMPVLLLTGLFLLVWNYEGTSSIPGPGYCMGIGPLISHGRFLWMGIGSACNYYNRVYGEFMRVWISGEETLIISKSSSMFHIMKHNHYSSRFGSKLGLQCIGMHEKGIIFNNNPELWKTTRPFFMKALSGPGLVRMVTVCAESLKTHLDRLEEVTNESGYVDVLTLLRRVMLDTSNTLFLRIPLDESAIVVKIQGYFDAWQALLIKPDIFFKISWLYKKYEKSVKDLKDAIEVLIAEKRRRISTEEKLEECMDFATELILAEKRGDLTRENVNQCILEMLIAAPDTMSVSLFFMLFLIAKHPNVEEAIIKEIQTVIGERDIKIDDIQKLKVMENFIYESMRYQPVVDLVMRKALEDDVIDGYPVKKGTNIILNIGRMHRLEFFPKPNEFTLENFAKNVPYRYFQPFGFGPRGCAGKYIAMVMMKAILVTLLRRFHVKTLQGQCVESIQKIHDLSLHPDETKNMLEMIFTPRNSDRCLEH
As to the kind of experiment: Inhibitory concentration was tested on Cytochrome P450 19A1 in human placental microsomes 20 (microg) of protein incubated for 20 min. More on the design: species or system Placenta.

The target in assay [2] is T1, Aromatase. As to the kind of experiment: Binding affinity for human placental microsome aromatase Cytochrome P450 19A1.
Assay [3] concerns the target T1, Aromatase. As to the kind of experiment: Binding affinity for human placental microsome Cytochrome P450 19A1.

One may read the IC50 as the point on the concentration scale where inhibition reaches its midpoint. For orientation: Ki means the equilibrium dissociation constant of an inhibitor or competing ligand from its target. The low end stands for higher affinity, the high end for lower affinity. Compound `CC12CCC3C(C[C@H](Cc4ccccc4)C4=CC(=O)CCC43C)C1CCC2=O` (some centres not stated) displayed a half-inhibitory concentration (IC50) on Aromatase [1] of 660 nM. At Aromatase [2], this compound displayed a Ki of 10 nM.
Turning to `C=C[C@@H]1CC2C3CCC(=O)C3(C)CCC2C2(C)CCC(=O)C=C12` (some centres not stated), on Aromatase [1], the IC50 was found to be 320 nM. The same compound yielded a Ki on Aromatase [2] of 5.1 nM.
For the compound `C[C@H]1CC2C3CCC(=O)C3(C)CCC2C2(C)CCC(=O)C=C12` (some centres not stated), the IC50 at Aromatase [1] turned out to be 350 nM. The Ki at Aromatase [3] came out at 5.6 nM.
Take `CCC[C@@H]1CC2C3CCC(=O)C3(C)CCC2C2(C)CCC(=O)C=C12` (some centres not stated): at Aromatase [1], the IC50 amounted to 240 nM. On Aromatase [3], the Ki stood at 4.6 nM.
The like results for `C#C[C@@H]1CC2C3CCC(=O)C3(C)CCC2C2(C)CCC(=O)C=C12` (some centres not stated) were, in that order, 1900 nM and 62 nM.
For `CC12CCC3C(C[C@H](c4ccccc4)C4=CC(=O)CCC43C)C1CCC2=O` (some centres not stated), half-maximal inhibition against Aromatase [1] (IC50) was put at 1100 nM. At Aromatase [2], this compound gave a Ki of 21 nM.
As for `CC12CCC3C(C[C@@H](Cc4ccccc4)C4=CC(=O)CCC43C)C1CCC2=O` (some centres not stated), the IC50 on Aromatase [1] is 4000 nM. The same compound registered a Ki at Aromatase [2] of 63 nM.
As for `CC12CCC3C(C[C@@H](c4ccccc4)C4=CC(=O)CCC43C)C1CCC2=O` (some centres not stated), the IC50 against Aromatase [1] was 1700 nM. Moreover, affinity at Aromatase [3] was put at a Ki of 37 nM.
Consider `CCCC[C@H]1CC2C3CCC(=O)C3(C)CCC2C2(C)CCC(=O)C=C12` (some centres not stated), for which, at Aromatase [1], the 50% inhibitory concentration (IC50) was found to be 790 nM. Besides, the inhibition constant (Ki) on Aromatase [2] was 12 nM.
Compound `CCC[C@H]1CC2C3CCC(=O)C3(C)CCC2C2(C)CCC(=O)C=C12` (some centres not stated) displayed an IC50 against Aromatase [1] of 390 nM. This compound displayed a Ki at Aromatase [2] of 6.7 nM.
At Aromatase [1], `C[C@@H]1CC2C3CCC(=O)C3(C)CCC2C2(C)CCC(=O)C=C12` (some centres not stated) displayed an IC50 of 720 nM. Besides, at Aromatase [3], the Ki was found to be 11 nM.
As for `CC[C@H]1CC2C3CCC(=O)C3(C)CCC2C2(C)CCC(=O)C=C12` (some centres not stated), the midpoint of inhibition on Aromatase [1], the IC50, lay at 260 nM. The Ki at Aromatase [3] was 4.7 nM.
The compound `CC[C@@H]1CC2C3CCC(=O)C3(C)CCC2C2(C)CCC(=O)C=C12` (some centres not stated) gave an IC50 at Aromatase [1] of 140 nM. At Aromatase [3], this compound displayed an inhibitory constant (Ki) of 1.4 nM.
Regarding `CCCC[C@@H]1CC2C3CCC(=O)C3(C)CCC2C2(C)CCC(=O)C=C12` (some centres not stated), at Aromatase [1], the IC50 was 510 nM. The same compound gave a Ki on Aromatase [3] of 8.8 nM.
Turning to `CC(C)[C@@H]1CC2C3CCC(=O)C3(C)CCC2C2(C)CCC(=O)C=C12` (some centres not stated), the IC50 against Aromatase [1] was 1100 nM. On Aromatase [2], the affinity corresponds to a Ki of 22 nM.
`CC(C)[C@H]1CC2C3CCC(=O)C3(C)CCC2C2(C)CCC(=O)C=C12` (some centres not stated) displayed an IC50 at Aromatase [1] of 1400 nM. On Aromatase [2], this compound yielded a Ki of 31 nM.
